Test results: PubChem BioAssay (NCI)
Several values for one entry are separate records, joined by “and”; a condition that tells them apart may be missing. Equal entries are not always repeated.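 Exposure lasted 48 hours, with cells grown in 96-well plates and compounds tested at five concentrations. GI50: concentration for 50% inhibition of growth. TGI: total growth inhibition.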

What was measured:
Experiment in all cases: NCI tumour cell line growth inhibition, 48 h
A549 NSCLC = test system: A549 NSCLC
ACHN renal = test system: ACHN renal
COLO 205 colon = test system: COLO 205 colon
HCC-2998 colon = test system: HCC-2998 colon
HCT-116 colon = test system: HCT-116 colon
HCT-15 colon = test system: HCT-15 colon
HL-60(TB) leukemia = test system: HL-60(TB) leukemia
MCF7 breast = test system: MCF7 breast
MDA-N = test system: MDA-N
KM20L2 colon = test system: KM20L2 colon

SMILES	GI50 (A549 NSCLC)	TGI (A549 NSCLC) [µM]	GI50 (ACHN renal) [µM]	TGI (ACHN renal) [µM]	GI50 (COLO 205 colon)	TGI (COLO 205 colon)	GI50 (HCC-2998 colon) [µM]	TGI (HCC-2998 colon) [µM]	GI50 (HCT-116 colon)	TGI (HCT-116 colon)	GI50 (HCT-15 colon)	TGI (HCT-15 colon)	GI50 (HL-60(TB) leukemia) [µM]	TGI (HL-60(TB) leukemia) [µM]	GI50 (MCF7 breast)	TGI (MCF7 breast)	GI50 (MDA-N) [µM]	TGI (MDA-N) [µM]	TGI (KM20L2 colon) [µM]	GI50 (KM20L2 colon) [µM]
CN1CCN(CCCN2c3ccccc3Sc3ccc(Cl)cc32)CC1	6.5 µM and 56.8 µM	13.7	5.93	12.4	4.37 µM and 36.6 µM	11.6 µM and 51.1 µM	3.53	10.3	5.15 µM and 39.9 µM	12 µM and 54.2 µM	5.12 µM and 48 µM	11.5 µM and 77.8 µM	8.85	17.9	5.79 µM and 47.1 µM	14 µM and 63 µM	42.1	61.4	–	–
O=[N+]([O-])c1oc2ccc3ccccc3c2c1CCO	–	7.29	–	3.68	–	1.46 µM	–	1.24	–	> 29.7 µM	–	34.2 µM	–	13	–	29.5 µM	–	4.07	–	–
CC1(C)CCC(C)(C)c2cc(NC(=O)c3ccc(C(=O)O)cc3)ccc21	–	> 100	–	> 100	–	> 55.9 µM	–	> 60	–	55.7 µM	–	> 64 µM	–	> 100	–	> 83.2 µM	–	> 100	–	–
CN(C)c1ccccc1[CH2][Ga]([Cl])[CH2]c1ccccc1N(C)C	1.44 µM	2.94	1.43	3.12	1.04 µM	2.36 µM	1.23	2.88	0.833 µM	2.17 µM	0.698 µM	2.33 µM	2.7	5.36	0.954 µM	2.67 µM	1.66	3.08	–	–
C=C1CC2(CCS(=O)(=O)c3ccccc32)OC1=O (stereo not drawn)	–	35.2	–	23.7	–	9.33 µM	–	37.1	–	–	–	27.6 µM	–	8.64	–	–	–	–	28.6	–
CN1C(=O)C2(c3ccccc31)C1CC3C(CO1)C1C2C3(CO)CN1C#N (stereo not drawn)	–	> 100	–	> 100	–	> 100 µM	–	> 100	–	> 100 µM	–	> 100 µM	–	> 100	–	> 100 µM	–	> 100	–	–
CCC1(c2ccc(N)cc2)CCC(=O)NC1=O (stereo not drawn)	–	> 5000	–	> 5000	–	3070 µM	–	> 5000	–	> 5000 µM	–	> 5000 µM	–	3630	–	> 5000 µM	–	> 5000	> 5000	–
N#CCc1nnc(N)o1	–	> 100	–	> 100	–	–	–	–	–	> 100 µM	–	> 100 µM	–	> 100	–	–	–	–	> 100	–
O=C(O)CN(c1ccc(F)cc1)S(=O)(=O)c1ccccc1	–	> 100	–	> 100	–	> 100 µM	–	–	–	–	–	> 100 µM	–	> 100	–	–	–	–	> 100	–
COC(=O)C1[C@H](c2ccc3c(c2)OCO3)OC(=O)[C@]1(C(=O)OC)C(=O)c1ccc(OC)c(OC)c1 (stereo partly drawn)	–	–	–	> 100	–	> 100 µM	–	> 100	–	–	–	> 100 µM	–	55.2	–	–	–	–	> 100	–
O=C(O)Cc1ccc(N=Nc2c(O)c(C(=O)O)cc3ccccc23)cc1	–	> 100	–	> 100	–	> 100 µM	–	> 100	–	> 100 µM	–	> 100 µM	–	> 100	–	> 100 µM	–	> 100	–	–
CC[PH+](CC)CC.CC[PH+](CC)CC.[Au]	22.8 µM	53.1	17.6	31.4	2.52 µM	7.32 µM	20.7	35.2	16 µM	32.9 µM	6.24 µM	25.7 µM	0.345	2.09	–	–	–	–	33.3	17.3
CCOC(=O)CN(c1ccccc1)c1nc(=[N+](C)C)ss1	–	> 100	–	> 100	–	15.4 µM	–	> 100	–	> 100 µM	–	56.5 µM	–	48.4	–	–	–	–	> 100	–
Cc1ccc(C(=O)NCCN(C)C)c2nc3ccccc3cc12	–	4.53	–	10.3	–	> 100 µM	–	13.4	–	10.9 µM	–	6.5 µM	–	> 100	–	–	–	–	6	–
Cc1ccc(C2=Nc3ccccc3S(=O)C(c3ccc4c(c3)OCO4)C2)cc1 (stereo not drawn)	–	> 100	–	82.4	–	> 100 µM	–	> 10	–	37.3 µM	–	–	–	59.1	–	–	–	–	33	–
COc1ccc(OC)c(/C=C/c2ccnc3ccccc23)c1	–	14.7	–	18.8	–	0.863 µM	–	12.9	–	8.09 µM	–	17.3 µM	–	0.977	–	17.4 µM	–	0.286	–	–
O=C1C(=O)N(c2ccc(Cl)cc2)C(=O)C(=Nc2cccc3c(=O)[nH][nH]c(=O)c23)C1c1nc2ccccc2o1 (stereo not drawn)	–	> 100	–	> 100	–	> 100 µM	–	> 100	–	> 100 µM	–	> 100 µM	–	> 100	–	–	–	–	> 100	–
